Results reported in patent US4833155A, “3-(ω-(3,5,-di-t-butyl-4-hydroxyphenyl)-alkanoyl)pyrroles, and anti-inflammatory uses thereof” (Syntex (U.S.A.) Inc., priority 1986, dated 1989).
Several values for one entry are separate records, joined by “and”; a condition that tells them apart may be missing. Equal entries are not always repeated.

What was measured:
[1] = system: adjuvant-induced arthritis (heat-killed Mycobacterium butyricum), hind paw weight increase; test: Adjuvant-Induced Arthritis Assay "AI"; format: in vivo; settings: rat, oral, day 18
Description: Anti-inflammatory activity is determined by the Adjuvant-Induced Arthritis ("AI") Assay, as is well accepted in the art. A modification of the assay described by Pearson, et al., supra., is performed as follows: Female Hla:(SD) BR rats weighing 160-180 g are randomly distributed to treatment groups of 12 animals, and given food and water ad libitum. Test materials are prepared fresh weekly as suspensions in carboxymethyl cellulose. The test animals are orally dosed with the suspensions in volumes of 1 ml twice per day Monday through Friday, and with 2 ml once per day on Saturdays and Sundays. […] At time 0, rats are injected intradermally in the proximal quarter of the tail with 0.1 ml of a mineral oil suspension of heat-killed Mycobacterium butyricum (Difco) at a concentration of 10 mg/ml. On day 18 the intensity of swelling in the four paws and tail is estimated visually and scored (0-4 for paws, 0-3 for tail) such that the total maximum score, indicating intense swelling of all four paws and tail, is 19. The animals are then sacrificed; the hind paws of each animal are removed and weighed. The percent inhibition is calculated by comparing the weight increase of the hind paws of the test animals versus the control animals.

[2] = system: carrageenan-induced rat paw inflammation; test: Carrageenan-Induced Rat Paw Inflammation Assay "CI"; format: in vivo; settings: oral
Description: Anti-inflammatory activity is determined by the Carrageenan-Induced Rat Paw Inflammation "CI" Assay, as is well accepted in the art. A modification of the assay described by Winter, et al., supra., is performed as follows:
Female albino rats (Sim: (SD)fbr) weighing 80-90 g receive the test materials orally in 1 ml aqueous solution at hour 0. One hour later (hr 1) 0.05 ml of a 1% solution (in aqueous 0.9% NaCl) of carrageenan is injected into the right hind paw to inflame the paw. The rats are sacrificed at hour 4, at which time both hind paws are removed and individually weighed. The percent increase in the weight of the inflamed paw over that of the opposite non-inflamed paw is calculated, and the results are reported according to the formula: [formula]

[3] = system: arachidonic acid-induced mouse ear edema; test: Arachidonic Acid-Induced Mouse Ear Edema Assay "AAI"; format: in vivo; settings: topical
Description: Topical anti-inflammatory activity is determined by the Arachidonic Acid-Induced Mouse Ear Edema "AAI" Assay, as is well accepted in the art. A modification of the assay described by Young, et al., supra., is performed as follows:
The test materials are prepared as solutions in acetone and applied to the right ears of mice, in groups of eight (8), at hour 0. At hour 1, 2 mg of arachidonic acid in acetone solution is applied to the right ears of the mice to induce an inflammatory response. The left ears of these animals serves as negative controls. At hour 2 the mice are sacrificed; their ears are removed and 8 mm diameter full thickness plugs are cut from the tip of each ear. The plugs are weighed and the mean right and left plug weights are calculated for each group. The results are expressed as percent inhibition of ear plug weight increase relative to a positive control group receiving only acetone at hour 0.

[4] = system: phenylquinone-induced writhing; test: Phenylquinone-Induced Mouse Writhing Assay "PI" (cyclooxygenase-inhibition activity); format: in vivo
Description: Cyclooxygenase-inhibition activity is determined by the Phenylquinone-Induced Mouse Writhing "PI" Assay, as is well accepted in the art. A modification of the assay described by Hendershot, et al., supra., is performed as follows:
Phenylquinone solution is prepared as follows: 4 mg of phenylquinone is dissolved in 0.5 ml of absolute ethanol, after which 19.5 ml of warmed distilled water is added. When properly prepared, all of the phenylquinone solution remains in solution. The solution is used soon after preparation.
The test materials are administered in 0.2 ml of an aqueous vehicle at hour 0 to groups of eight male Swiss-Webster (Simonsen) mice weighing about 18-20 g. At either twenty (20 ) minutes or one hundred twenty (120) minutes later, 0.25 ml of a 0.02% solution of phenylquinone is injected into each animal, to induce writhing. The animals are then observed for the next ten (10) minutes for writhing responses, and the number of writhes per animal is recorded. The mean number of writhes is calculated for each treatment group and the results are expressed as percent inhibition of writhing responses relative to a control group receiving vehicle alone.

[5] = system: lipoxygenase in human polymorphonuclear leukocytes; test: Human Polymorphonuclear Leukocyte Assay "HPMN" (lipoxygenase inhibition); format: cell-based; settings: dose 36.0 μg
Description: Lipoxygenase inhibition activity is determined in vitro by the Human Polymorphonuclear Leukocyte ("HPMN") Assay, as is well accepted in the art. A modification of the assay described by Radmark, et al., supra., is performed as follows:
1. Preparation of the cells: The HPMNs are prepared from 200-300 ml of heparinized blood of healthy donors not receiving any medication for at least 7 days, using Ficol-Hypaque gradients. In general, HPMNs are greater than 90% pure and their viability is assessed by dye-exclusion to be better than 95%. The cells are suspended in phosphate buffered saline containing 1.0 mM CaCl2 (PH 7.4) and 0.1% ovalbumin, and used within 30 minutes.
2. Lipoxygenase Assay: Incubations are carried out at 37° C. for 5 minutes in a total volume of 0.2 ml arachidonic acid 1-C^14 (1×10^-4 M unless otherwise indicated, and approximately 300,000 cpm) is added to a suspension of cells (ca 5×10^6) to initiate the reaction. […]
1.6 Ml of deionized water is added, vortexed, and centrifuged. […] The eluates are collected in scintillation vials and 1.0 ml aliquot from each of the two fractions are counted for radioactivity in a Packard liquid scintillation counter. From the radioactivity data thus obtained percent yields of total lipoxygenase products in blanks, controls and drug-containing tubes are calculated as well as percent inhibition by the test compounds.

[6] = Isomura et al., Chem. Pharm. Bull. 32(1): 152-165 (1984); cited from earlier work
[7] = phenylquinone 20 min after dose, 5.0 mg/kg
[8] = phenylquinone 20 min after dose, 15.0 mg/kg
[9] = phenylquinone 120 min after dose, 15.0 mg/kg

Compound | inhibition of hind paw weight increase ([1]; daily dose 0.4 mg/kg) [%] | inhibition of hind paw weight increase ([1]; daily dose 2.0 mg/kg) [%] | Inhibition (CI) ([2]; dose 1.0 mg/kg) [%] | Inhibition (CI) ([2]; dose 10.0 mg/kg) [%] | Inhibition (AAI), ear plug weight increase ([3]; dose 0.5 mg/ear) [%] | Inhibition (AAI), ear plug weight increase ([3]; dose 1.0 mg/ear) [%] | Inhibition (AAI), ear plug weight increase ([3]; dose 2.0 mg/ear) | Inhibition (PI), writhing responses ([4]; phenylquinone 20 min after dose, 0.1 mg/kg) [%] | Inhibition (PI), writhing responses ([4]; phenylquinone 20 min after dose, 1.0 mg/kg) [%] | Inhibition (PI), writhing responses ([4]; phenylquinone 20 min after dose, 1.5 mg/kg) [%] | Inhibition (PI), writhing responses [4, 7] [%] | Inhibition (PI), writhing responses [4, 8] | Inhibition (PI), writhing responses [4, 9] [%] | Inhibition (CI) ([2]; dose 100.0 mg/kg) [%] | Inhibition (PI), writhing responses ([4]; phenylquinone 20 min after dose, 50.0 mg/kg) | Inhibition (HPMN), total lipoxygenase products [5] [%] | anti-inflammatory activity as reported [6]
CC(C)(C)c1cc(C(=O)c2cc[nH]c2)cc(C(C)(C)C)c1O [A, 3-(3,5-di-t-butyl-4-hydroxybenzoyl)pyrrole] | 54 | 70 | 24 | 44 | 49 | 62 | 67% and 69% | 15 | 61 | 100 | 99 | 97% and 96% | 100 |  |  |  | 
CC(C)(C)c1cc(C(=O)c2ccc[nH]2)cc(C(C)(C)C)c1O [B, 2-(3,5-di-t-butyl-4-hydroxybenzoyl)pyrrole, reference compound] |  |  |  |  |  |  | 22% |  |  |  | 26 | 40% and 52% and 65% | 49 | 30 | 56% and 38% | 50 | 
Cc1[nH]ccc1-c1cc(C(C)(C)C)c(O)c(C(C)(C)C)c1 [Formula VIII] |  |  |  |  |  |  |  |  |  |  |  |  |  |  |  |  | inactive
